Results: US20120172650A1, “USE OF SO[…] AN ANALOGUE THEREOF IN COMBINATION WITH EXTERNAL RADIATION THERAPY” (priority 2009, published 2012)
Like-named read-outs stand apart in the source and are kept apart here.

Assays:
GH3 cells [1] = format: cell-based, rat; details: for surviving fraction at 10 Gy: 100 nM lanreotide, plus 10 Gy radiation (radiation alone 0.0006); for cell survival rate (colony forming units): 21 days
Source text: Currently, there are no human pituitary GH-secreting cell lines that can be maintained in a differentiated state in vitro for sufficient time for colony formation assessment (Danila, D. C. et al., J. Clin. Endocrinol. Metab., 2001, 86:2976-8; Danila, D. C. et al., J. Clin. Endocrinol. Metab., 2000, 85:1180-7). As such, a rat GH3 pituitary tumor cell line was purchased from ATCC. The GH3 cells were maintained in DMED/F-12 medium (Gibco BRL, Grand Island, N.Y.) supplemented with 10% fetal calf serum, 100 units/ml penicillin and 100 μg/ml streptomycin in a 37° C. humidified incubator with a mixture of 95% air and 5% CO2. All experiments were performed on exponentially growing cells with a doubling time of approximately 30 hours.
GH3 cells were detached from the cell culture support using a 0.05% trypsin-EDTA solution. The collected cells were counted, diluted in fresh growth medium and plated in triplicate in 60 mm Petri dishes (BD Biosciences, San Jose, Calif.) at dilutions of approximately 100-100,000 cells/dish. Lanreotide (Biomeasure, Inc., Milford, Mass., USA) was added to the diluted cells at final concentrations of 1-1000 nM. The cells were irradiated with 0-10 Gy at room temperature using a ^137Cs source with a dose rate of 300 cGy/min. Following exposure to lanreotide or gamma irradiation, the media was drained from the dish, the cells were washed twice with PBS (phosphate buffered saline) solution and the plates were filled with fresh growth medium. After incubation at 37° C. for 21 days, the cells were stained with 0.25% crystal violet. Colonies containing ≧50 cells were counted under a dissecting microscope and survival curves were generated. The plating efficiency (PE) was calculated as the percentage of cells plated that grew into colonies. The surviving fraction (SF) was defined as the fraction of cells surviving, i.e. number of colonies/(number of […]×PE).
GH3 cells were plated in 60 mm tissue culture dishes and incubated overnight prior to treatment with the somatostatin agonist analog. Lanreotide was added to the cells to a final concentration of 1-1000 nM. After a 21 day incubation period in the presence of lanreotide the cells were stained and colonies with >50 cells were counted.
GH3 cells were plated in tissue culture dishes and allowed to incubate overnight prior to treatment. At 48, 24 or 0 hours before radiation exposure, lanreotide was added to the cells at a final concentration of 100 nM or 1000 nM. At 48, 24 or 0 hours after the addition of the lanreotide, the GH3 cells were irradiated with 0-10 Gy at room temperature with a Cs-137 gamma irradiator. Following irradiation, cells with 24-hour or 0-hour pre-exposure to lanreotide were incubated in lanreotide-containing media for an additional 24 or 48 hours, respectively. After a total of 48-hour exposure, lanreotide-containing media was removed from the plates, the cells washed twice with PBS solution and fresh growth media added to the cells. Cells that were irradiated without exposure to lanreotide were also washed twice with PBS and supplied with fresh media. The cells were incubated for 21 days for colony formation.

GH3 cells [2] = assay: Apoptosis and cell cycle analysis by FACScan flow cytometry (propidium iodide); format: cell-based, rat; details: for apoptotic sub-G1 cells: 48 hours after 10 Gy radiation
Description: Apoptosis and cell cycle distribution was analyzed using a FACScan flow cytometer (BD Biosciences, San Jose, Calif.). The level of apoptosis was quantified by measuring the number of sub-diploid (sub-G1) cells. Briefly, GH3 cells were plated in 60 mm dishes at a density of approximately 500,000 cells/dish and treated with lanreotide and gamma irradiation. Approximately 48 to 168 hours after exposure, the cells were collected and washed with cold PBS supplemented with 5 mM EDTA. Cells were re-suspended in cold PBS-EDTA solution and fixed with cold 100% ethanol. After incubation for 30 minutes at room temperature, the cells were centrifuged and the pellet of cells was treated with 100 μg/ml of RNase A in a PBS-EDTA solution for 30 minutes at room temperature. Propidium iodide (PI) was added to a final concentration of 50 μg/ml and the DNA content was analyzed with a FACScan flow cytometer (BD Biosciences, San Jose, Calif.). The percentage of cells in the apoptotic sub-G1, G1, S, and G2/M phases was calculated.
GH3 cells were placed in 60 mm Petri dishes at a concentration of approximately 500,000 cells/dish and allowed to grow overnight. Lanreotide at 100 nM was added at 48 hours, 24 hours or immediately (0 hours) before irradiation. Cells were irradiated with 10 Gy gamma radiation at room temperature and collected 48, 72, 96 and 168 hours after exposure.
The DNA content of the cells was analyzed using a FACScan and the percentages of cells in the apoptotic sub-G1, G1, S and G2/M phases were calculated. […] The percentage of cells in sub-G1, G1, S and G2/M phases at 48 hours was 1.4±0.2%, 73.2±1.0%, 8.4±1.0% and 16.9±1.8%, respectively.

GH3 xenograft tumors = assay: Mouse GH3 xenograft tumor model, tumor growth delay; format: in vivo, nude mice
Description: Male nude mice, 8 weeks old and 20-25 grams in body weight, were used in this study (Charles River Laboratories, Hollister, Calif.). Prior to experimentation the mice were tested and found to be negative for specific pathogens. The mice were maintained under specific-pathogen-free conditions and allowed to breed. Sterilized food and water were available ad libitum.
Tumors were initiated in the in the right flank of the mice by a subcutaneous injection of 5×10^6 tumor cells suspended in 100 μl of a 1:1 mixture of Hank's solution and Matrigel (BD Biosciences, San Jose, Calif.). Each mouse received one inoculation injection. When the tumors reached an average size of 120 mm^3 (80-200 mm^3), the mice were randomly assigned to different treatment groups with 5-8 mice in each group. Lanreotide was administered to each mouse via subcutaneous injection. […]
Local irradiation of individual tumors was carried out as follows. Unanesthetized tumor-bearing mice were placed in lead boxes, positioned so as to have the tumors protruding through a cut-out window at the rear of each box. The radiation dose was delivered using a Philips RT-250 200 kVp X-ray unit (12.5 mA; Half Value Layer, 1.0-mm Cu) at a dose rate of 138 cGy/min. The tumors were exposed to 150-250 cGy per fraction daily for 5 consecutive days as specified in each experiment.
(§1) Tumor volume was calculated using the formula: tumor volume (mm^3)=π/6×length×width^2. The length and width of the tumors were measured with calipers before treatment and three times a week thereafter, until the tumor volume reached at least 4 times (4×) the pre-treatment volume. The tumor volume quadrupling (4×) time was determined by a best-fit regression analysis. The tumor growth delay (TGD) time (in days) is the difference between the tumor volume quadrupling time of treated tumors compared to the tumor volume quadrupling time of untreated control tumors. Both the tumor volume quadrupling time and tumor growth delay time were calculated for each individual animal and then averaged for each group. In some experiments, a complete response of tumors was recorded if a tumor shrunk to the point that it was not palpable at the end of the experiment. Body weight was measured twice a week.

[3] = Tolerability in GH3 tumor-bearing mice (body weight, appearance, activity); format: in vivo, nude mice
Description: as §1

CC(C)[C@@H]1NC(=O)[C@H](CCCCN)NC(=O)[C@@H](Cc2c[nH]c3ccccc23)NC(=O)[C@H](Cc2ccc(O)cc2)NC(=O)[C@@H](NC(=O)[C@H](N)Cc2ccc3ccccc3c2)CSSC[C@@H](C(=O)N[C@H](C(N)=O)[C@@H](C)O)NC1=O [lanreotide, D-2-Nal-Cys-Tyr-D-Trp-Lys-Val-Cys-Thr-NH2]
surviving fraction at 10 Gy (GH3 cells [1]; 0 hour pre-exposure): 0.00042
surviving fraction at 10 Gy (GH3 cells [1]; 24 hours pre-exposure): 0.0004
surviving fraction at 10 Gy (GH3 cells [1]; 48 hours pre-exposure): 0.00022
effect on radiation survival curves (GH3 cells [1]; 1000 nM lanreotide for 48 hours with 0-10 Gy radiation): did not alter the shape and slopes of the radiation survival curves
IC50 (GH3 cells [1]; GH3 cells, 21 day incubation in the presence of lanreotide, read-out: IC50 (50% inhibition of cell growth), colony formation): 57 nM
cell survival rate (colony forming units) (GH3 cells [1]; lanreotide 1 nM): 75%
cell survival rate (colony forming units) (GH3 cells [1]; lanreotide 10 nM): 56%
cell survival rate (colony forming units) (GH3 cells [1]; lanreotide 100 nM): 39%
cell survival rate (colony forming units) (GH3 cells [1]; lanreotide 1000 nM): 27%
reduction of clonogenic survival compared with untreated controls (GH3 cells [1]; lanreotide alone 100 nM or 1000 nM for 48 hours, without radiation): 5-10%
percentage of cells in sub-G1 phase (GH3 cells [2]; 100 nM lanreotide alone (control 1.4±0.2% at 48 hours)): 2.28±0.3%
percentage of cells in S phase (GH3 cells [2]; 100 nM lanreotide alone (control 8.4±1.0%)): 7.72±0.8%
percentage of cells in G2/M phase (GH3 cells [2]; 100 nM lanreotide alone (control 16.9±1.8%)): 16.2±0.5%
percentage of cells in G1 phase (GH3 cells [2]; 100 nM lanreotide alone (control 73.2±1.0%)): 73.8±1.1%
apoptotic sub-G1 cells (GH3 cells [2]; 100 nM lanreotide 0 hours pre-exposure (radiation alone 4.9%)): 13.4%
apoptotic sub-G1 cells (GH3 cells [2]; 100 nM lanreotide 24 hours pre-exposure (radiation alone 4.9%)): 9.3%
apoptotic sub-G1 cells (GH3 cells [2]; 100 nM lanreotide 48 hours pre-exposure (radiation alone 4.9%)): 8.6%
sub-G1 cell fraction (GH3 cells [2]; 168 hours after 10 Gy radiation, radiation plus 100 nM lanreotide (radiation alone 12%)): 20-22%
tumor growth delay time, pre-administration plus radiation (GH3 xenograft tumors; 10 mg/kg lanreotide 5 days, then lanreotide plus 150 cGy daily for 5 days (radiation alone 15.5±8.8 days)): 15.1 ± 8.6 days
once daily vs twice daily dosing in reducing tumor growth (GH3 xenograft tumors; 2.5, 5 or 10 mg/kg s.c. qd or bid for 5 days, p=0.3-0.9): lanreotide delivered once a day was as effective as lanreotide delivered twice daily
tumor growth 4× delay (GH3 xenograft tumors; dose response study, 10 mg/kg s.c. daily for 5 days (optimal dose, bell-shaped curve)): 13.1 ± 4.7 days
complete tumor regression (GH3 xenograft tumors; irradiation and combination therapy groups, study terminated after 60 days): Two mice from the irradiation and combination therapy groups exhibited complete tumor regression
4×TGD (GH3 xenograft tumors; lanreotide alone 10 mg/kg daily for 10 days, p=0.06 vs. control): 8.3 ± 8.3 days
tumor growth 4× delay (GH3 xenograft tumors; regimen comparison, 5 mg/kg twice daily for 5 days): 1.1 ± 3.1 days
tumor growth 4× delay (GH3 xenograft tumors; regimen comparison, 10 mg/kg once daily for 5 days): 4.9 ± 2.1 days
signs of systemic toxicity (general appearance, skin reaction, body weight, activity) ([3]; 10 mg/kg for 10 days alone and in combination with 150 cGy external radiation): did not result in any obvious signs of systemic toxicity
animal body weight, combination vs fractionated radiation alone ([3]; 10 mg/kg lanreotide plus 150-250 cGy/fraction for 5 days): did not cause any further decrease in animal body weight
general appearance and daily activity ([3]; 2.5-50 mg/kg daily for 5 days): no notable change
body weight compared to untreated control mice ([3]; 2.5-50 mg/kg daily for 5 days, all doses tested): did not cause significant decrease in body weight
